Data taken from patent publication US11396510B2, “GABAA receptor ligand” (Saniona A/S, priority 2018, dated 2022).
“Also recorded” adds a separate entry of the source.

Experiments:
[1] = molecular target: T1, recombinant GABA α3β2γ2 receptors (HEK-293 cell membranes) (Homo sapiens, UniProt P18507+P34903); experiment: In vitro inhibition of 3H-flumazenil binding; settings: 3H-flumazenil 1 nM, 40 min at 2° C., HEK-293 α3β2γ2 membranes
T1 construct: expressed in transfected cells; membranes
Description: Specific binding is total binding minus non-specific binding.

[2] = molecular target: T2, α1β2γ2 GABAA receptors expressed in Xenopus laevis oocytes (Homo sapiens, UniProt P14867+P18507); experiment: Oocyte two-electrode voltage clamp electrophysiology, α1β2γ2; assay type: cell-based; settings: GABA at EC10-20, normalized to diazepam
T2 construct: expressed in transfected cells; host or cells: Xenopus laevis oocytes injected with cRNA
Description: (§1) FIG. 1. […] Efficacy profile on GABAA receptors in oocyte two-electrode voltage clamp recordings. […] Peak currents were read and normalized to a maximal effective concentration of diazepam, where after data points were fitted to the empirical Hill equation by non-linear regression, n=3−14.
(§2) The assay reported here is performed to determine the in vitro functional potency as well as efficacy of PAMs at the major brain GABAA receptors subtypes. To establish this, a full concentration response profile was determined at a GABA concentration giving rise to 5-20% of the maximal GABA-evoked response from α1β2γ2, α2β2γ2, α3β2γ2 and α5β2γ2 receptors expressed in Xenopus laevis oocytes.
Collagenase defolliculated X. laevis oocytes were obtained from Ecocyte Bioscience. For injection, the oocytes were placed in a custom designed chamber in Mod. Barth's solution (90 mM NaCl, 1 mM KCl, 0.66 mM NaNO3, 2.4 mM NaHCO3, 0.74 mM CaCl2, 0.82 mM MgCl2, 100 μg/ml Gentamicin and 10 mM HEPES adjusted to pH 7.55) and injected with 25-50 nl of cRNA mixture using a Pico Pump (WPI). The cRNA mixture contain GABAAR subunits αx, β2, and γ2s in the ratio of 3:1:3 and in a total concentration of 0.5 μg/μl. Following injection, oocytes were maintained at 18° C. in Mod.
Electrophysiological responses from X. laevis oocytes were measured using the two-electrode voltage clamp technique. Single oocytes were placed in custom designed recording chambers that were continuously perfused with ≥2 ml/min OR2 (90 mM NaCl, 2.5 mM KCl, 2.5 mM CaCl2, 1 mM MgCl2 and 5 mM HEPES pH 7.4). […] The oocyte was impaled using manual micro manipulators and allowed to equilibrate at a holding potential of −50 mV to −80 mV for at least 1 min to ensure a maximal leak current of 100 nA before the experiment was initiated. […] Currents were amplified by a Geneclamp 500B amplifier (Axon), low-pass filtered at 20 Hz, digitized at 200 Hz by a Digidata 1322A (Axon) and then recorded as well as analyzed by a PC (Compaq Evo) using the pClamp9 suite (Axon). […]

[3] = molecular target: T3, α2β2γ2 GABAA receptors expressed in Xenopus laevis oocytes (Homo sapiens, UniProt P18507+P47869); experiment: Oocyte two-electrode voltage clamp electrophysiology, α2β2γ2; assay type: cell-based; settings: GABA at EC10-20; normalized to maximal effective concentration of diazepam
T3 construct: expressed in transfected cells; host or cells: Xenopus laevis oocytes injected with cRNA
Description: as §1, §2
(§3) Collagenase defolliculated X. laevis oocytes were obtained from Ecocyte Bioscience. For injection, the oocytes were placed in a custom designed chamber in Mod. […]
(§4) Electrophysiological responses from X. laevis oocytes were measured using the two-electrode voltage clamp technique. […] Currents were amplified by a Geneclamp 500B amplifier (Axon), low-pass filtered at 20 Hz, digitized at 200 Hz by a Digidata 1322A (Axon) and then recorded as well as analyzed by a PC (Compaq Evo) using the pClamp9 suite (Axon). […]

[4] = molecular target: T4, α3β2γ2 GABAA receptors expressed in Xenopus laevis oocytes (Homo sapiens, UniProt P18507+P34903); experiment: Oocyte two-electrode voltage clamp electrophysiology, α3β2γ2; assay type: cell-based; settings: GABA at EC10-20; normalized to diazepam
T4 construct: expressed in transfected cells; host or cells: Xenopus laevis oocytes injected with cRNA
Description: as §1, §2, §3, §4

[5] = molecular target: T5, α5β2γ2 GABAA receptors expressed in Xenopus laevis oocytes (Homo sapiens, UniProt P18507+P31644); experiment: Oocyte two-electrode voltage clamp electrophysiology, α5β2γ2; assay type: cell-based; settings: GABA at EC10-20; normalized to maximal effective concentration of diazepam
T5 construct: expressed in transfected cells; host or cells: Xenopus laevis oocytes injected with cRNA
Description: as §1, §2, §3, §4

[6] = system: male Sprague Dawley (SD) rats; experiment: Exploratory locomotor activity in male SD rats; assay type: in vivo, rat; settings: up to 30 mg/kg per oral, 120 minutes prior, recorded 30 minutes
Description: FIG. 4. […] The activity of the rats was automatically registered for 30 minutes (TSE MoTil, Germany).
Male SD rats (180-250 grams, NTac:SD, Taconic, Denmark)
2 hrs post dosing, the rats were placed individually into novel standard home cages with reduced sawdust bedding. The cages were placed in frames equipped with photocells and beams allowing for automatic recording of locomotor behaviour (TSE MoTil, Germany). The exploratory locomotor activity was recorded for 30 minutes.

[7] = system: Compound 48/80 induced scratching in male CD-1 mice; experiment: Compound 48/80 induced scratching in male CD-1 mice
Description: Male CD-1 mice (22-30 g) (InterVivo Solutions, Canada)
All treatments were dosed at a dosing volume of 10 ml/kg.
Visual observation of bouts of scratching over 30 minutes. Visual assessments were performed blinded to treatment.

[8] = system: Chronic Constriction Injury (CCI) in Rats; experiment: Mechanical allodynia in chronic constriction injury (CCI) rats, acute and chronic dosing; settings: for paw withdrawal threshold vs vehicle after chronic dosing: tested day 8
Description: Morphine was administered subcutaneously. […] The animals were tested after 14 days of surgery. **p<0.01,****p<0.0001 vs vehicle, Two-way ANOVA Fisher's LSD posttest, n=7−9.
Male SPRD rats (Taconic), 140-160 grams at surgery
The sciatic nerve was exposed at the mid-thigh level proximal to the sciatic trifurcation. Four chromic gut ligatures (4/0) (Ethicon, New Brunswick, N.J.) were tied loosely around the nerve, 1-2 mm apart, such that the vascular supply was not overtly compromised. The overlying muscle was closed in layers with 4/0 synthetic absorbable surgical suture.
Morphine-hydrochloride: 6 mg/kg free base weight, 1 ml/kg, subcutaneous administration. Pretreatment: 30 minutes
Morphine hydrochloride: 6 mg/kg free base weight, 1 ml/kg, subcutaneous administration once daily for 7 days.

[9] = system: male Sprague Dawley (SD) rats; experiment: Rotarod performance in male SD rats; settings: 10 mg/kg per oral, 60 minutes before test
Description: Rats were trained on the rota rod for two days at 4-40 rpm for 5 min before evaluating the drug effects on the 3rd day.
Male SD rats (150-180 grams, NTac:SD, Taconic, Denmark)
The rats were trained on an accelerating rotarod (4-40 rpm, PanLab), one trial of 5 minutes per day, for two days prior to drug testing. Only rats that were able to stay on the rotating rod for more than 90 seconds after two days of training were included in the study. At the day of testing, the rats were placed on the rotating rod, accelerating with a speed of 4-40 rpm/5 minutes with the minimum time possible to spend on the rod designated as 0 s, and the maximum time spent on the rod set at 300 s.

T2 sequence (P14867 28-456): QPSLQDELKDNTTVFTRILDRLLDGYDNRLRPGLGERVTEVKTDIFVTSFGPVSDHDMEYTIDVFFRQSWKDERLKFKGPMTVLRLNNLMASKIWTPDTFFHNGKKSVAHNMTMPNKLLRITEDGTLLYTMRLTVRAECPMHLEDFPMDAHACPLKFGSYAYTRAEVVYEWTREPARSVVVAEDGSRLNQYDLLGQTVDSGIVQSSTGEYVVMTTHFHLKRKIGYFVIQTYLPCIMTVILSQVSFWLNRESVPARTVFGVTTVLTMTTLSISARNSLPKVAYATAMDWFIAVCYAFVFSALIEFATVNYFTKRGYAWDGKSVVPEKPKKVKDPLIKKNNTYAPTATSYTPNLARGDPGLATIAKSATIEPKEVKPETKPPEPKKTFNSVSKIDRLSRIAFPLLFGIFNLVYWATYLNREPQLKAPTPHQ
T2 sequence (P47870 25-512 partner limits assumed): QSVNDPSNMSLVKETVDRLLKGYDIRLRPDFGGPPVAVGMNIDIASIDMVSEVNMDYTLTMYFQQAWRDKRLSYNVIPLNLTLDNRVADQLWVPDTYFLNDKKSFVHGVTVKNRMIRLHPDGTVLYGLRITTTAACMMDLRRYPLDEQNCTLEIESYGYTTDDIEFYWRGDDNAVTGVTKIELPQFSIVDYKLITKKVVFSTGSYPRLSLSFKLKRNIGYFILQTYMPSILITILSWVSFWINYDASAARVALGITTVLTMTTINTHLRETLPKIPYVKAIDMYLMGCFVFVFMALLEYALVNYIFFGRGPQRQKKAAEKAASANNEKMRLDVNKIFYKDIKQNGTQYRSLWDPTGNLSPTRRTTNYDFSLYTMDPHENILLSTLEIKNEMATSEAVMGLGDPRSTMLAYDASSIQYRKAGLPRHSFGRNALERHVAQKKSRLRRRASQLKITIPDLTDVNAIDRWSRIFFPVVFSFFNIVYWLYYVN
T2 sequence (P18507 40-467 isoform P18507-1 limits assumed): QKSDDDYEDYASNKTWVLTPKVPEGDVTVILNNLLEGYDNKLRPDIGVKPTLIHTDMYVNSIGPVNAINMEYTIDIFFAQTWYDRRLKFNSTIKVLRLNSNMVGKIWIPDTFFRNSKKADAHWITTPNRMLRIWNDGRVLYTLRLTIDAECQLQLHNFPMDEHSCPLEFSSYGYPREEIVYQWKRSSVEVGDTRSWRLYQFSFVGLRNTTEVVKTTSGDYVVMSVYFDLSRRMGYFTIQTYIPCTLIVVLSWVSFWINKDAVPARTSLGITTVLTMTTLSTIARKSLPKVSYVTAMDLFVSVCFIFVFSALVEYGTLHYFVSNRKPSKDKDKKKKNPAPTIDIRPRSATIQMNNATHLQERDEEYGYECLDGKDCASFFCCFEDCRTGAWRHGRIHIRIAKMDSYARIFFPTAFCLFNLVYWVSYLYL
T1 sequence (P34903 29-492): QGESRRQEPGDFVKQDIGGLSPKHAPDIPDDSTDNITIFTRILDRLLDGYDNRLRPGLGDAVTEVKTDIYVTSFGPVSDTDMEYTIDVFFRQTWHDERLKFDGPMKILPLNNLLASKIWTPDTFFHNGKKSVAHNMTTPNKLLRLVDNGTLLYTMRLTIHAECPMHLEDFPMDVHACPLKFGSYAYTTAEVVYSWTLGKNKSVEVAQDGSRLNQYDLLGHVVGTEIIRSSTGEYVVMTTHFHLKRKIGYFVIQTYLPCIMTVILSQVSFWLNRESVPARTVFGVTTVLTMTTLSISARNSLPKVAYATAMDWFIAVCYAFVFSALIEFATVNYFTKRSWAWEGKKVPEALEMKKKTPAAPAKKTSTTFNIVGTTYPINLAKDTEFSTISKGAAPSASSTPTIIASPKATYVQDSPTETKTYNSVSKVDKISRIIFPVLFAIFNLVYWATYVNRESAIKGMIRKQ
T1 sequence (P47870 25-512 partner limits assumed): as the sequence (P47870 25-512 partner limits assumed) above
T1 sequence (P18507 40-475): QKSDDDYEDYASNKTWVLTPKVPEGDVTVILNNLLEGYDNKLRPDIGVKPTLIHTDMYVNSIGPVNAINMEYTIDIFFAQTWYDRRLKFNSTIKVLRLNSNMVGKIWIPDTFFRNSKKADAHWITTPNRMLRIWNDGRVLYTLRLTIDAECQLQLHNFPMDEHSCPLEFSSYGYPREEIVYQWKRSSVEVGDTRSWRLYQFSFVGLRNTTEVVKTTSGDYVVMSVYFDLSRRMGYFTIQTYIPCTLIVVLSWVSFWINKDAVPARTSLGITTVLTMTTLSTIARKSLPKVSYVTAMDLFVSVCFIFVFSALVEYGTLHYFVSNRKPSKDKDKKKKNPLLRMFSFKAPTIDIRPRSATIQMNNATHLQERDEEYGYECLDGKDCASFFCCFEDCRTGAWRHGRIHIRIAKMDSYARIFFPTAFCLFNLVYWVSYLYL
T3 sequence (P47869 29-451): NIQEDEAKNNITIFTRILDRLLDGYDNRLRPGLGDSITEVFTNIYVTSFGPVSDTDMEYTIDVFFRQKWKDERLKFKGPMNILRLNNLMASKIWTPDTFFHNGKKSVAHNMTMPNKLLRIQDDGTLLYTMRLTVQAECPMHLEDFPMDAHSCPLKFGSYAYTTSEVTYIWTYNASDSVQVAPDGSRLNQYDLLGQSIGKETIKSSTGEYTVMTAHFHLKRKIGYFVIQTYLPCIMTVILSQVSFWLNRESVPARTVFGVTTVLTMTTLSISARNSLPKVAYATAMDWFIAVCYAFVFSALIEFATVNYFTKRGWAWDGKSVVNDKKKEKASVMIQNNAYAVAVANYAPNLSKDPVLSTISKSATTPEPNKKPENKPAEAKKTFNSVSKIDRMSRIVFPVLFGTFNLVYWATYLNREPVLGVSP
T3 sequence (P47870 25-512 partner limits assumed): as the sequence (P47870 25-512 partner limits assumed) above
T3 sequence (P18507 40-467 isoform P18507-1 limits assumed): as the sequence (P18507 40-467 isoform P18507-1 limits assumed) above
T5 sequence (P31644 32-462): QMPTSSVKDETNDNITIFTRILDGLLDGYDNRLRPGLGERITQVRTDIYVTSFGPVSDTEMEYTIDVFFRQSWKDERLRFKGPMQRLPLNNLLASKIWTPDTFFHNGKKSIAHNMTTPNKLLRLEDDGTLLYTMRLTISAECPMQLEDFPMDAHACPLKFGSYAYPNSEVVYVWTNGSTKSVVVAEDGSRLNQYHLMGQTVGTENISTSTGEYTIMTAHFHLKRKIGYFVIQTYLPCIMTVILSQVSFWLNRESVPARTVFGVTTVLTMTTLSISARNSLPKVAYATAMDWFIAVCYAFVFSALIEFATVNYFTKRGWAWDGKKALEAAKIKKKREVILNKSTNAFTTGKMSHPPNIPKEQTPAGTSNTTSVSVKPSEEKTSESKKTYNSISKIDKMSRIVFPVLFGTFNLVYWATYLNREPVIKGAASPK
T5 sequence (P47870 25-512 partner limits assumed): as the sequence (P47870 25-512 partner limits assumed) above
T5 sequence (P18507 40-467 isoform P18507-1 limits assumed): as the sequence (P18507 40-467 isoform P18507-1 limits assumed) above
T4 sequence (P34903 29-492): as the sequence (P34903 29-492) above
T4 sequence (P47870 25-512 partner limits assumed): as the sequence (P47870 25-512 partner limits assumed) above
T4 sequence (P18507 40-467 isoform P18507-1 limits assumed): as the sequence (P18507 40-467 isoform P18507-1 limits assumed) above

Question: Which results are given for COc1ncc(-c2cccc(-n3cnc4cc(C(C)(C)O)cnc43)c2)c(OC)n1 [Compound 1, 2-(3-(3-(2,4-dimethoxypyrimidin-5-yl)phenyl)-3H-imidazo[4,5-b]pyridin-6-yl)propan-2-ol]?
Answer: IC50 [1]: 38 nM; Ki [1]: 15 nM; modulation of GABA-mediated currents, α1β2γ2 receptor [2]: no activation; modulation of GABA-mediated currents, α1β2γ2 receptor ([2]; listed as compound 1): close to zero; activation of GABAA-α2 containing receptors [3]: less than 10%; potentiation of GABA-mediated currents in GABAA-α3 containing receptors [4]: preferential potentiation; activation of GABAA-α5 containing receptors [5]: less than 10%; exploratory locomotor activity [6]: did not exert any effect; also recorded: did not affect exploratory locomotor activity; CI (IV 0.5 mg/kg, rat): 6.33 mL/min/kg; concentration after 8 h (dose 1 mg/kg (Table 3)): *AUC calculated 0-8 h, concentration after 8 h was 149 ng/ml.; bouts of scratching over 30 minutes vs vehicle ([7]; 3, 10, 30 mg/kg oral gavage, 30 min prior, significant at 10 and 30 mg/kg): significantly relieved itching; also recorded: dose dependently reduced; minimal effective dose, bouts of scratching ([7]; oral gavage 30 min before compound 48/80): 10 mg/kg; paw withdrawal threshold vs vehicle after chronic dosing ([8]; 1, 3, 10 mg/kg per oral once daily for 7 days): significant enhancement of the paw withdrawal threshold was maintained; paw withdrawal threshold vs vehicle after chronic dosing ([8]; 1, 3, 10 mg/kg per oral once daily for 7 days, listed as compound 1): significant analgesic effect of all 3 doses were maintained; paw withdrawal threshold vs vehicle ([8]; acute, 1 mg/kg per oral, 2 hrs and 3 hrs post treatment): significantly enhanced paw withdrawal threshold; paw withdrawal threshold vs vehicle ([8]; acute, 3 mg/kg per oral, 2 hrs and 3 hrs post treatment): significantly enhanced paw withdrawal threshold; paw withdrawal threshold vs vehicle ([8]; acute, 10 mg/kg per oral): just failed to reach statistical significance; minimal effective dose, reversal of mechanical allodynia ([8]; acute, oral administration, CCI rats): less than or equal to 1 mg/kg

Question: For COc1ncc(-c2cccc(-n3cnc4cc(C(C)(C)O)ccc43)c2)c(OC)n1 [Compound 9, reference compound], which “modulation of GABA-mediated currents, α1β2γ2 receptor” value [2] is on record?
Answer: clearly negative

Question: Which “latency to fall off accelerating rotarod” value [9] does the source give for CN1C(=O)CN=C(c2ccccc2)c2cc(Cl)ccc21 [Diazepam] here?
Answer: significantly shortened the time to fall off the rod; also recorded: significantly shortened the latency to fall off

Question: For CN1CC[C@]23c4c5ccc(O)c4O[C@H]2[C@@H](O)C=C[C@H]3[C@H]1C5.Cl [Morphine hydrochloride, reference compound], which “paw withdrawal threshold vs vehicle after chronic dosing” value ([8]; 6 mg/kg subcutaneous once daily for 7 days, hydrochloride) is on record?
Answer: completely abolished the allodynic effect; also recorded: completely lost

Question: And the “paw withdrawal threshold vs vehicle” value ([8]; acute, 6 mg/kg subcutaneous)?
Answer: significantly enhanced paw withdrawal threshold
